Measurements published in US20200131227A1, “POLYPEPTIDE WITH TUMOUR BINDING ACTIVITY” (RUPRECHT-KARLS-UNIVERSITÄT HEIDELBERG, priority 2017, published 2020).
Where a SMILES comes first, the peptide text is derived from it. Bridges are numbered along the chain shown (N, C = ends).

System: HNSCC cell lines HNO97, HNO399, and HNO223
Assay type: binding, human
Description: For the assessment of the peptide binding capacity in vitro, 2.5-4×10^5 cells were seeded into 6-well plates and cultivated for 48 h. ^125I-labeled peptide resuspended in 1 mL serum-free medium was added and incubated for either 10 min or 60 min with or without different concentrations of unlabeled peptide (10^−4-10^−11 M). Afterwards, cell monolayers were washed three times with 1 mL phosphate-buffered saline (pH 7.4) to remove unbound peptide and the cells were harvested with 1.4 mL lysis buffer (0.3 M NaOH). To evaluate kinetic properties the cells were exposed to ^177Lu-DOTA-labeled peptides for 10, 30, 60, 120, and 240 min, respectively, and lysed as described. For the efflux experiments the cells were incubated with ^177Lu-DOTA-labeled peptides for 60 min. Thereafter, radioactive medium was replaced by non-radioactive medium and cell monolayers were incubated for additional 60, 120, and 240 min and afterwards lysed as described earlier. The internalization was assessed after exposure of the cells to ^177Lu-DOTA-labeled peptides for 10, 30, 60, 120, and 240 min at 37° C. Unspecifically bound peptide was removed from the surface by incubation with 1 M glycine-HCl solution (pH 2.2) for 10 min. The monolayer cell was rinsed with PBS and cells were lysed as described before. Radioactivity was determined in a y-counter and calculated as percentage of the applied dose per 1×10^6 cells. […]

CSCC[C@@H]1NC(=O)[C@H](CC(C)C)NC(=O)[C@H](CC(=O)O)NC(=O)CNC(=O)[C@H](CCCNC(=N)N)NC(=O)[C@H](Cc2ccccc2)NC(=O)[C@H]([C@@H](C)O)NC(=O)[C@@H](NC(=O)[C@H](CCCNC(=N)N)NC(=O)CN)CSSC[C@@H](C(=O)N[C@@H](Cc2ccc(O)cc2)C(=O)N2CCC[C@H]2C(=O)N[C@@H](CC(=O)O)C(=O)O)NC(=O)[C@H](CC(C)C)NC(=O)[C@H](CCC(N)=O)NC1=O [SFITGv6, NH2-G-R-C1-T-F-R-G-D-L-M-Q-L-C1-Y-P-D-COOH] (H-GRCTFRGDLMQLCYPD-OH; disulfide 3-13)
IC50: 14.1 nM
